# Laboratory results from ChEMBL document CHEMBL4715696, “In vitro synergistic anticancer activity of the combination of T-type calcium channel blocker and chemotherapeutic agent in A549 cells” (Bioorg Med Chem Lett, 2016).
# Tests used:
# [1] = Metabolic stability in mouse liver microsomes assessed as parent compound remaining at 1 uM measured for 30 mins; format: ADME, Microsome; details: read-out: Stabilty
# A549 [2] = experiment: Decrease in cell cycle associated protein expression in human A549 cells assessed as fold change in cyclin D1 expression at 10 uM after 24 hrs by Western blot analysis (reference value: 0.68); format: functional
# [3] = Increase in recruitment of […] p27KIP1 to CDK2 in human A549 cells assessed as fold change at 10 uM incubated for 12 hrs by immunoprecipitation/immunoblot analysis (reference value: 0.43); format: functional
# A549 [4] = experiment: Decrease in cell cycle associated protein expression in human A549 cells assessed as fold change in CDK2 expression at 5 uM after 48 hrs by Western blot analysis (reference value: 0.48); format: functional
# A549 [5] = experiment: Decrease in cell cycle associated protein expression in human A549 cells assessed as fold change in CDK2 expression at 10 uM after 48 hrs by Western blot analysis (reference value: 0.48 to 0.79); format: functional
# A549 [6] = experiment: Decrease in cell cycle associated protein expression in human A549 cells assessed as fold change in CDK6 expression at 10 uM after 48 hrs by Western blot analysis (reference value: 0.7 to 1.05); format: functional
# A549 [7] = experiment: Decrease in cell cycle associated protein expression in human A549 cells assessed as fold change in cyclin D3 expression at 10 uM after 36 hrs by Western blot analysis (reference value: 1.09); format: functional
# A549 [8] = experiment: Decrease in cell cycle associated protein expression in human A549 cells assessed as fold change in CDK6 expression at 10 uM after 6 hrs by Western blot analysis (reference value: 0.7); format: functional
# A549 [9] = experiment: Potentiation of cisplatin-induced cell cycle arrest in human A549 cells assessed as accumulation at G2/M phase at 10 uM in presence of cisplatin after 48 hrs by flow cytometric analysis (Rvb =52.9%); format: functional
# A549 [10] = experiment: Decrease in cell cycle associated protein expression in human A549 cells assessed as fold change in cyclin D1 expression at 10 uM after 48 hrs by Western blot analysis (reference value: 0.39 to 0.68); format: functional
# A549 [11] = experiment: Decrease in cell cycle associated protein expression in human A549 cells assessed as reduction in CDK6 expression after 48 hrs by Western blot analysis; format: functional, cell-based; details: dose 2.5-10 µM
# [12] = Metabolic stability in rat plasma assessed as parent compound remaining at 10 uM measured after 2 hrs; format: ADME, cell-free; details: read-out: Stabilty
# A549 [13] = experiment: Decrease in cell cycle associated protein expression in human A549 cells assessed as fold change in CDK6 expression at 2.5 uM after 48 hrs by Western blot analysis (reference value: 1.05); format: functional
# A549 [14] = experiment: Decrease in cell cycle associated protein expression in human A549 cells assessed as fold change in CDK4 expression at 10 uM after 48 hrs by Western blot analysis (reference value: 0.62 to 0.87); format: functional
# A549 [15] = experiment: Decrease in cell cycle associated protein expression in human A549 cells assessed as fold change in cyclin E expression at 10 uM after 12 hrs by Western blot analysis (reference value: 0.55); format: functional
# A549 [16] = experiment: Induction of cell cycle arrest in human A549 cells assessed as accumulation at S phase at 5 uM after 24 hrs by flow cytometric analysis (reference value: 17.6%); format: functional
# A549 [17] = experiment: Potentiation of etoposide-induced apoptosis in human A549 cells assessed as early apoptotic cells at 10 uM incubated for 48 hrs by AnnexinV-FITC/propidium iodide staining based flow cytometry (reference value: 19.1%); format: functional
# A549 [18] = experiment: Induction of cell cycle arrest in human A549 cells assessed as decrease in cell accumulation at G2/M phase after 48 hrs by flow cytometric analysis; format: functional, cell-based; details: dose 2.5-10 µM
# A549 [19] = experiment: Induction of cell cycle arrest in human A549 cells assessed as accumulation at sub G1 phase at 5 uM after 24 hrs by flow cytometric analysis (reference value: 7.8%); format: functional
# [20] = Metabolic stability in dog liver microsomes assessed as parent compound remaining at 1 uM measured for 30 mins; format: ADME, Canis lupus familiaris, Microsome; details: read-out: Stabilty
# A549 [21] = experiment: Decrease in cell cycle associated protein expression in human A549 cells assessed as fold change in cyclin D3 expression at 10 uM after 6 hrs by Western blot analysis (reference value: 1.09); format: functional
# CYP2D6 = CYP2D6 (Homo sapiens, UniProt P10635); experiment: Inhibition of human CYP2D6 assessed as residual activity at 10 uM measured after 15 mins relative to control; format: ADME; details: read-out: Activity
# A549 [22] = experiment: Potentiation of cisplatin-induced cell cycle arrest in human A549 cells assessed as accumulation at G1 phase at 10 uM in presence of cisplatin after 48 hrs by flow cytometric analysis (reference value: 14.4%); format: functional
# [23] = Protein binding in rat plasma at 10 uM after 4 hrs; format: ADME, cell-free; details: read-out: PPB (converted)
# A549 [24] = experiment: Decrease in cell cycle associated protein expression in human A549 cells assessed as fold change in CDK2 expression at 10 uM after 6 hrs by Western blot analysis (reference value: 0.79); format: functional
# A549 [25] = experiment: Decrease in cell cycle associated protein expression in human A549 cells assessed as fold change in cyclin E expression at 2.5 uM after 48 hrs by Western blot analysis (reference value: 0.37); format: functional
# A549 [26] = experiment: Decrease in cell cycle associated protein expression in human A549 cells assessed as fold change in cyclin E expression at 5 uM after 48 hrs by Western blot analysis (reference value: 0.37); format: functional
# [27] = Metabolic stability in human plasma assessed as parent compound remaining at 10 uM measured after 1 hr; format: ADME, cell-free; details: read-out: Stabilty
# A549 [28] = experiment: Induction of cell cycle arrest in human A549 cells assessed as accumulation at sub G1 phase at 10 uM after 48 hrs by flow cytometric analysis (reference value: 1.9%); format: functional
# A549 [29] = experiment: Decrease in cell cycle associated protein expression in human A549 cells assessed as fold change in CDK2 expression at 10 uM after 24 hrs by Western blot analysis (reference value: 0.79); format: functional
# A549 [30] = experiment: Decrease in cell cycle associated protein expression in human A549 cells assessed as fold change in cyclin D2 expression at 10 uM after 6 hrs by Western blot analysis (reference value: 0.77); format: functional
# A549 [31] = experiment: Induction of cell cycle arrest in human A549 cells assessed as accumulation at G1 phase at 2.5 uM after 48 hrs by flow cytometric analysis (Rvb =65.5%); format: functional
# CYP2C19 = CYP2C19 (Homo sapiens, UniProt P33261); experiment: Inhibition of human CYP2C19 assessed as residual activity at 10 uM measured after 15 mins relative to control; format: ADME; details: read-out: Activity
# A549 [32] = experiment: Decrease in cell cycle associated protein expression in human A549 cells assessed as fold change in cyclin E expression at 10 uM after 24 hrs by Western blot analysis (reference value: 0.55); format: functional
# A549 [33] = experiment: Potentiation of etoposide-induced cell cycle arrest in human A549 cells assessed as accumulation at G2/M phase at 5 uM in presence of etoposide after 48 hrs by flow cytometric analysis (Rvb =18.9%); format: functional
# A549 [34] = experiment: Induction of cell cycle arrest in human A549 cells assessed as accumulation at S phase at 5 uM after 48 hrs by flow cytometric analysis (reference value: 10.4 to 12%); format: functional
# Chain of CYP2C19 (P33261 whole entry): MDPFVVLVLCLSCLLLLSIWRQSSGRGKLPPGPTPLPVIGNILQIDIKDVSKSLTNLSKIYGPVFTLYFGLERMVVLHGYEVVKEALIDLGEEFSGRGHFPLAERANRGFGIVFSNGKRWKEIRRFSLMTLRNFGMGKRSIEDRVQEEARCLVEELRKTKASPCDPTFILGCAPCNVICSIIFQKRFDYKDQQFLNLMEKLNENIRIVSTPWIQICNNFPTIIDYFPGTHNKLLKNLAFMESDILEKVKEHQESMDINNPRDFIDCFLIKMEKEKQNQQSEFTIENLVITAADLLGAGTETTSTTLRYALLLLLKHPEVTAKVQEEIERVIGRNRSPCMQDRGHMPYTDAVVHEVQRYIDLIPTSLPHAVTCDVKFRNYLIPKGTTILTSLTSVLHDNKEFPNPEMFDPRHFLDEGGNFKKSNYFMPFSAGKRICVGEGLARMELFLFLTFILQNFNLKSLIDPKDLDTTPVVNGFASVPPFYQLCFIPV
# Chain of CYP2D6 (P10635 whole entry): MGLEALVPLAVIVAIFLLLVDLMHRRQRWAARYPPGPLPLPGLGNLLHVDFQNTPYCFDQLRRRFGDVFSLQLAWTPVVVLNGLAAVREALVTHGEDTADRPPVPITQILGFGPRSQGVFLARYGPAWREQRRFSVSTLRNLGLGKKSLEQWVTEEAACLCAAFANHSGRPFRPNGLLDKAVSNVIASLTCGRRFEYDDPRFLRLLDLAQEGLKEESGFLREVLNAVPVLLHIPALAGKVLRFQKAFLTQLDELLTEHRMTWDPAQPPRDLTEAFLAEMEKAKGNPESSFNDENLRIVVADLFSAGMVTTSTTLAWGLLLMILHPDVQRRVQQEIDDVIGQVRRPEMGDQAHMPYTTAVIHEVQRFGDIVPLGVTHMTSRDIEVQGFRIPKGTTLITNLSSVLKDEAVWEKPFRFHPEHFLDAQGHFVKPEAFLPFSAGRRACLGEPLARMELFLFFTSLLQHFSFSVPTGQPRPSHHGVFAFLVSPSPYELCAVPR
smiles,measurement,setting,value
CN(C)C(=O)NCCCN(C)C1=Nc2ccccc2C(CC(=O)NCc2ccc(F)cc2)N1c1ccc(C2CCCCC2)cc1 (stereo unspecified),"remaining at 0.5 h, 1 µM",[1],64.3%
same,fold change (FC),A549 [2],0.37
same,fold change (FC),[3],0.6
same,fold change (FC),A549 [4],0.46
same,fold change (FC),A549 [5],0.26
same,fold change (FC),A549 [6],0.14
same,fold change (FC),A549 [7],0.96
same,fold change (FC),A549 [8],0.7
same,Activity,A549 [9],9.4%
same,fold change (FC),A549 [10],0.55
same,Activity,A549 [11],Dose-dependent effect
same,"remaining at 2 h, 10 µM",[12],24.8%
same,fold change (FC),A549 [13],0.59
same,fold change (FC),A549 [14],0.46
same,fold change (FC),A549 [15],0.13
same,Activity,A549 [16],12.4%
same,Activity,A549 [17],49.1%
same,Activity,A549 [18],Dose-dependent effect
same,Activity,A549 [19],4.7%
same,"remaining at 0.5 h, 1 µM",[20],92.6%
same,fold change (FC),A549 [21],1.23
same,"activity at 0.25 h, 10 µM",CYP2D6,78.3%
same,Activity,A549 [22],32.4%
same,"fraction unbound at 4 h, 10 µM",[23],< 0.01
same,fold change (FC),A549 [24],0.91
same,fold change (FC),A549 [25],0.44
same,fold change (FC),A549 [26],0.49
same,"remaining at 1 h, 10 µM",[27],85.1%
same,Activity,A549 [28],4%
same,fold change (FC),A549 [29],0.61
same,fold change (FC),A549 [30],0.86
same,Activity,A549 [31],69.3%
same,"activity at 0.25 h, 10 µM",CYP2C19,55.8%
same,fold change (FC),A549 [32],0.08
same,Activity,A549 [33],13.4%
same,Activity,A549 [34],8.3%
